Entries after “also recorded” stand apart in the source; their conditions may differ.
Key:
HPAF-II cells [1] = assay: LGK974 treatment of RNF43 mutant HPAF-II cells (proliferation, LD90 dose for CRISPR screen); format: cell-based
Excerpt: HPAF-II cells harbor a mutation in RNF43 a negative regulator of the Wnt signaling pathway and as a result these cells are exquisitely dependent on the presence of Wnt ligands. […] Genome wide CRISPR-Cas9 screen was used to identify genes underlying PORCN inhibitor sensitivity, specifically, gene knockouts mediating LGK974 resistance. To do this, the RNF43 mutant cell line HPAF-II was transduced with the genome-wide TKO gRNA library and treated with a LD90 dose of the PORCN inhibitor LGK974 (Liu et al 2013). Under these conditions, the vast majority of cells undergo cell cycle arrest, but a few clones bypassed this process and emerged during the selection. Next generation sequencing of the resistant clones identified gRNA targeting several known negative regulators of Wnt signalling—including APC and AXIN1 that re-activated the ßcatenin pathway distal to the receptor complex. […]
HPAF-II cells were infected with the Toronto knockout library version 1 (TKOv1)—a pooled sgRNA lentiviral library (Hart et al2015) at a multiplicity of infection of 0.3, in the presence of 8 μg/ml polybrene (Sigma) for 24 h. […] Sequenced gRNAs were mapped to the TKOv1 library using MaGECK 0.5.3, and read counts were normalized by total reads per sample before averaging biological replicates and determining gRNA enrichment.

HPAF-II cells [2] = assay: Clonogenic assay of LGK974 sensitivity in HPAF-II wild type and knockout cells; format: cell-based
Protocol: As validation, each of the genes discovered in this LGK974 positive selection screen were knocked-out in HPAF-II cells and the sensitivity to LGK974 was determined using clonogenic assays. The assay tested HPAF-II wild type cells, HPAF-II wild type cells treated with LGK974, HPAF-II cells with the gene APC knocked out and treated with LGK974, HPAF-II cells expressing a degradation resistant mutant (DegR)-ßCatenin and treated with LGK974, HPAF-II cells with the AXIN gene knocked out and treated with LGK974, and HPAF-II cells with the FBXW7 gene knocked out and treated with LGK974.
(§1) HPAF-II mutant cells (APC-truncation, AXIN-knockout, FBXW7-knockout) were transfected via electroporation using the Neon system (Thermo) under the following conditions; 2 μg of DNA (sgRNA construct pX330) 1150V, 30 ms and 2 pulses. Cells were allowed to recover for 2 days before the addition of 100 nM LGK-974 to enrich for mutations driving Wnt pathway activation. Cell lines were validated for editing using TIDE (tracking of insertions and deletions (Brinkman et al 2014).

[3] = test system: C-33-A cells (FBXW7 mutation); assay: Dose-response assay in cervical cancer cell line panel (Ca-Ski, DoTc2-4510, SiHa, C-33-A); format: cell-based
Protocol: (§2) HPAF-II, C33A, SiHa HEK293T cells (ATCC) were grown in DMEM (4.6 g/L D-glucose, L-glutamine)+10% fetal bovine serum+5% Anti-Anti at 37° C. and 5% CO2. Caski cells were grown in RPMI-1640+10% fetal bovine serum+5% Anti-Anti at 37° C. and 5% CO2. For serum starvation, regular growth media was removed, and replaced with DMEM (4.6 g/L D-glucose, L-glutamine)+5% Anti-Anti for 18 h. CHIR99021 was used at 4 nM.
(§3) All cells were seeded in triplicate at 2500 cells/well. The following day, a dose-response treatment of OTS964 (Cayman Chemicals) or AZD6738 (SelleckChem). At 3d and 7d of treatment, respectively cell viability was determined using CellTiter-Glo (Promega) as per manufacturer's instructions.

wildtype HPAF-II cells = assay: Dose-response assay (CellTiter-Glo), wildtype HPAF-II cells; format: cell-based; conditions: FIG. 9
Protocol: as §2, §3

FBXW7^−/− HPAF-II cells = assay: Dose-response assay (CellTiter-Glo), FBXW7 knockout HPAF-II cells compared with wildtype; format: cell-based
Protocol: as §2, §1, §3

[4] = test system: Cervical cancer patient-derived cancer organoids; assay: Viability of patient-derived cervical cancer organoids (Cell Titer Glo); conditions: 7 days treatment, a subset of organoid models, FIGS. 10 and 11
Protocol: Cervical cancer patient-derived cancer organoids were treated with dose-response of OTS964 for 7 days. Following treatment, organoids were imaged, and viability was measured using Cell Titer Glo.

CCNL1 = assay: Western blot of CCNL1 levels after GSK3 inhibitor treatment; format: cell-based; conditions: CHIR99021 used at 4 nM, FIG. 6
Protocol: Using the methods of Example 8, a co-expression analysis followed by cycloheximide chase illustrated the effect of FBXW7 expression on CCNL1 stability. […] Mutation in the substrate-recognition domain of FBXW7 lead to a robust stabilization of CCNL1 levels.
as §2
All samples were lysed in 4× Laemmli Sample Buffer (50 mM Tris-HCl pH 6.8, 2% SDS, 10% glycerol, 1% β-mercaptoethanol, 12.5 mM EDTA, 0.02% bromophenol blue). Lysates were sonicated, boiled, and centrifuged to pellet insoluble material. Approx 10 μg were loaded per sample on a 4-15% SDS-PAGE Stain-Free TGX BioRad precast gel. Gels were run at 150V for approximately 60 minutes. Gels were transferred to methanol-activated PVDF at 90V for 120 minutes. Membranes were blocked in 5% milk in Tris-buffered Saline (pH 7.4)+1% Tween-20 (TBS-T) for 1 hr, and incubated with corresponding primary antibodies overnight. […]

In the case of `Cc1cc(-c2ncc(CC(=O)Nc3ccc(-c4cnccn4)cn3)cc2C)ccn1` [LGK974], the LD90 dose (HPAF-II cells [1]; HPAF-II cells, positive selection screen) is reported as 20 nM, the “effect of LGK974 treatment on HPAF-II cells” value (HPAF-II cells [1]; RNF43 mutant HPAF-II) is reported as “cell cycle arrest and strong inhibition of proliferation” and the “growth under LGK974 after knockout of APC and AXIN1” value (HPAF-II cells [2]; APC and AXIN1 knockout HPAF-II) is reported as “fully rescued the growth”. The “resistance to LGK974 after knockout of FBXW7” value (HPAF-II cells [2]; FBXW7 knockout HPAF-II) was “partial resistance” and the “growth of HPAF-II wildtype cells under LGK974” value (HPAF-II cells [2]; wildtype (RNF43 mutation)) was “robustly arrested the growth”.

`Cc1cc(O)c(-c2ccc([C@@H](C)CN(C)C)cc2)c2c1[nH]c(=O)c1sccc12` [OTS964, 9-[4-[(1R)-2-(dimethylamino)-1-methylethyl]phenyl]-8-hydroxy-6-methyl-thieno[2,3-c]quinolin-4(5H)-one] was tested, and the “OTS964 dose response in cervical cancer cell line panel” value ([3]; C-33-A vs Ca-Ski, DoTc2-4510, SiHa, FIG. 14A) was “hypersensitive”, the “dose at which inhibition in wildtype cells was seen (only at the highest dose tested)” value (wildtype HPAF-II cells) was 1 µM and the “sensitivity of FBXW7 mutant cells to CDK11 inhibition relative to wildtype” value (FBXW7^−/− HPAF-II cells; FBXW7^−/− vs wildtype HPAF-II cells, proliferation, FIG. 9) was “at least 5 times”. For the same compound, the “proliferation response to OTS964, FBXW7 knockout vs wild type cells” value (FBXW7^−/− HPAF-II cells; HPAF-II, 3d treatment, FIG. 9) was “striking increase in sensitivity; also recorded: hypersensitive” and the “relative viability of cervical cancer organoids under OTS964” value [4] was “sensitive”.

For `C[C@@H]1COCCN1c1cc(C2([S@](C)(=N)=O)CC2)nc(-c2ccnc3[nH]ccc23)n1` [AZD6738, (R)-imino(methyl)(1-(6-((R)-3-methylmorpholino)-2-(1H-pyrrolo[2,3-b]pyridin-4-yl)pyrimidin-4-yl)cyclopropyl)-I6-sulfanone], the “enhanced activity in C33A compared to Caski and SiHa cell lines” value ([3]; AZD6738, FIG. 15D) was 4-6 fold, the “cell viability under AZD6738 in cervical cancer cell line panel” value ([3]; C33A, FIG. 15D) was “highest susceptibility; also recorded: highly susceptible” and the “cell viability under AZD6738, FBXW7^−/− vs wildtype HPAF-II” value (FBXW7^−/− HPAF-II cells; 7d treatment, FIG. 15B) was “much more susceptible; also recorded: hypersensitivity”.

With `Cc1c[nH]c(-c2cnc(NCCNc3ccc(C#N)cn3)nc2-c2ccc(Cl)cc2Cl)n1` [CHIR99021] the “CCNL1 levels after treatment with GSK3 inhibitor” value (CCNL1) was “increased levels of CCNL1”.

— US20230042367A1, “METHODS AND COMPOSITIONS FOR TREATING CANCERS HAVING F-BOX AND WD-REPEAT PROTEIN 7 (FBXW7) ALTERATIONS AND/OR CYCLIN L1 (CCNL1) GAIN OR AMPLIFICATION” (THE GOVERNING COUNCIL OF THE UNIVERSITY OF TORONTO, priority 2019, published 2023)
